Patent publication US20250360108A1, “CATALYTIC INHIBITOR OF PROTEIN PHOSPHATASE 5 ACTIVATES THE EXTRINSIC APOPTOTIC PATHWAY BY DISRUPTING COMPLEX II” (The Research Foundation for the State University of New York, priority 2022, published 2025)

Experiments:
VHL-null ccRCC cells = assay: Flow cytometric cell death by propidium iodide staining; assay type: cell-based, human; settings: 30 or 40 μM; A498 and 786-O versus Caki-1 and Caki-2
Method: Flow Cytometric Analysis: Fluorescence-activated cell sorting (FACS) analysis was performed according to the protocol in the Annexin V:FITC kit (Bio-Rad). In brief, cells were plated in 10 cm dish at 0.5×10^6 and incubated at 37° C. for 18 hrs. […] Cells were trypsinized, collected and washed once with 1× binding buffer (included in the kit). Propidium iodide was added, then the cells were immediately run on a Becton Dickinson LSRFortessa instrument (BD Biosciences). Data were analyzed using FlowJo software version 10.7.1 for Windows (BD Biosciences).

786-O cells = assay: Induction of apoptosis by immunoblotting of apoptotic markers; assay type: cell-based, human
Method: Method Details Cell Transfection and Treatment: Cultured cells were split and then transfected the following day when about 40% confluent with each construct using Mirus TranslT-2020 (MirusBio) according to manufacturer's protocol. Cells were incubated at 37° C. and then extracted or collected for analysis after 24 hrs (HEK293) or 72 hrs (ccRCC cell lines). Short interfering RNA (siRNA) scramble control and PPP5C (PP5) targeting duplexes were purchased from OriGene (SKU: SR321403A, SR321403B, and SR321403C). Indicated cells were transiently transfected with the siRNA using Mirus TranslT-2020. For PP5 knock-down, either 30 nM of control siRNA or 10 nM of each PP5 siRNA duplex (A, B and C) were mixed prior to transfection. Cells were incubated at 37° C. for 72 hrs, then harvested for protein extraction. […] Cells were then harvested for protein extraction.
Protein Extraction, Immunoprecipitation and Immunoblotting: Protein extraction from mammalian cells was carried out using methods previously described. Cell lysates were quantified using 1× Bradford reagent (Biorad). For immunoprecipitation, cell lysates were incubated with anti-FLAG antibody conjugated beads (Sigma) or anti-HA conjugated beads (ThermoFisher Scientific) at 4° C. for 2 hrs. Endogenous IPs were achieved by incubating lysate with anti-PP5 antibody (Cell Signaling), anti-FADD antibody (Cell Signaling), or anti-RIPK1 antibody (Cell Signaling) overnight followed by protein G agarose (Invitrogen) at 4° C. for 2 hrs. Immunopellets were washed 4 times with fresh lysis buffer (20 mM Tris-HCl (pH 7.4), 100 mM NaCl, 1 mM MgCl2, 0.1% NP40, protease inhibitor cocktail (Roche), and PhosSTOP (Roche)) and eluted in 5× Laemmli buffer. Precipitated proteins were separated by SDS-PAGE and transferred to nitrocellulose membranes. Co-immunoprecipitated proteins or proteins from cell lysate were detected with antibodies recognizing FLAG, 6×-His (ThermoFisher Scientific), GAPDH (ENZO Life Sciences), Cdc37 (StressMarq), GR, phospho-GR (S211), PP5, caspase-3, cleaved caspase-3, caspase-8, cleaved caspase-8, cleaved caspase-7, cleaved-PARP, phospho-RIPK1 (S166), phospho-FADD (S194), PP2A-C, VHL (Cell Signaling), phospho-RIPK1 (S161) (Invitrogen), PP5 and phospho-Cdc37 (S13) (Abcam). Secondary antibodies raised against mouse and rabbit (Cell Signaling) were used (See Key Resources Table).

PP1 = settings: cited from earlier work
PP5 = molecular target: T1, PP5 (Homo sapiens, UniProt P53041); settings: cited from earlier work
T1 sequence (P53041 1-499): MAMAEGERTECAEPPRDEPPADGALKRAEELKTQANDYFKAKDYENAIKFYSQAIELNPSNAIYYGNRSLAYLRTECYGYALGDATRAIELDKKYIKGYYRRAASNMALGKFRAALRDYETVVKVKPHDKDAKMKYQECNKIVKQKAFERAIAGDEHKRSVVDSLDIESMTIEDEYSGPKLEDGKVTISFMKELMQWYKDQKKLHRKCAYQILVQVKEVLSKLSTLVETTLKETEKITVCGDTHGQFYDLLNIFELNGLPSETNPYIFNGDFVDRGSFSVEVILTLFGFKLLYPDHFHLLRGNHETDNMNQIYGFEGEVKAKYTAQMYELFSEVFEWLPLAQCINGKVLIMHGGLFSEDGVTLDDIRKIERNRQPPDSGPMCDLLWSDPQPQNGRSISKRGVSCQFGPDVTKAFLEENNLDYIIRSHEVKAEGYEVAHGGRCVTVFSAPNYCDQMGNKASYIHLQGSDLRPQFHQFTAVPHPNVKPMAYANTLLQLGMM

S194-FADD = assay: Phosphorylation of S194-FADD by immunoblot after IC261; assay type: cell-based, human; settings: 786-O and A498 cells, indicated amounts, 24 hrs
Method: Method Details Cell Transfection and Treatment: Cultured cells were split and then transfected the following day when about 40% confluent with each construct using Mirus TranslT-2020 (MirusBio) according to manufacturer's protocol. Cells were incubated at 37° C. and then extracted or collected for analysis after 24 hrs (HEK293) or 72 hrs (ccRCC cell lines). Short interfering RNA (siRNA) scramble control and PPP5C (PP5) targeting duplexes were purchased from OriGene (SKU: SR321403A, SR321403B, and SR321403C). Indicated cells were transiently transfected with the siRNA using Mirus TranslT-2020. For PP5 knock-down, either 30 nM of control siRNA or 10 nM of each PP5 siRNA duplex (A, B and C) were mixed prior to transfection. […]
Protein Extraction, Immunoprecipitation and Immunoblotting: Protein extraction from mammalian cells was carried out using methods previously described. Cell lysates were quantified using 1× Bradford reagent (Biorad). […] Co-immunoprecipitated proteins or proteins from cell lysate were detected with antibodies recognizing FLAG, 6×-His (ThermoFisher Scientific), GAPDH (ENZO Life Sciences), Cdc37 (StressMarq), GR, phospho-GR (S211), PP5, caspase-3, cleaved caspase-3, caspase-8, cleaved caspase-8, cleaved caspase-7, cleaved-PARP, phospho-RIPK1 (S166), phospho-FADD (S194), PP2A-C, VHL (Cell Signaling), phospho-RIPK1 (S161) (Invitrogen), PP5 and phospho-Cdc37 (S13) (Abcam). […]

Question: For `Cc1noc(C)c1S(=O)(=O)Nc1ccc(Cc2ccccc2)cc1` [Compound P053, (3,5-Dimethyl-4-isoxazolylsulfonyl)(p-benzylphenyl)amine], which “cell death (PI staining)” value (VHL-null ccRCC cells) is on record?
Answer: selectively caused cell death

Question: What about the “cleavage of caspase 3 and PARP” value (786-O cells; 10 μM, 24 hrs) of the same compound?
Answer: increased cleavage

Question: What about the “cleavage of caspase 8 versus caspase 9 (extrinsic apoptosis)” value (786-O cells; 10 μM, 24 hrs) of the same compound?
Answer: cleavage of caspase 8 but not caspase 9

Question: What about the “induction of apoptosis (cleaved PARP, cleaved caspase 8)” value (786-O cells; 10 μM, 24 hrs) of the same compound?
Answer: had the ability to induce apoptosis

Question: With `CN1CCN(C(=O)C2C(C(=O)O)[C@H]3CC[C@@H]2O3)CC1` (some centres unmarked) [LB-100] as the compound, how does the “inhibition of PP1” value (PP1) read?
Answer: inhibit

Question: And the “inhibition of PP5” value (PP5)?
Answer: inhibit

Question: With `COc1cc(OC)c(C=C2C(O)=Nc3ccccc32)c(OC)c1` [IC261, reference compound] as the compound, how does the S194-FADD phosphorylation (S194-FADD) read?
Answer: increase in S194-FADD phosphorylation

Question: And the “induction of extrinsic apoptosis (apoptotic markers)” value (786-O cells; indicated amounts, 16 hrs)?
Answer: induced extrinsic apoptosis in a dose-dependent manner
